From patent US7276519B2, “Thieno[3,2-b]pyridine-6-carbonitriles and thieno[2,3-b]pyridine-5-carbonitriles as protein kinase inhibitors” (Wyeth, priority 2002, dated 2007)
Several values for one entry are separate records, joined by “and”; a condition that tells them apart may be missing. Equal entries are not always repeated. Where two headings read alike, the source gives them in different places.

How the values were obtained:
[1] = tested on: Rat2 fibroblasts stably transformed with v-Src/Hu c-Src fusion gene; assay: Anchorage independent Src-transformed fibroblast proliferation assay; format: cell-based, rat
Experimental: Anchorage Independent Src-Transformed Fibroblast Proliferation Assay Rat2 fibroblasts stably transformed with a plasmid containing a CMV promotor controlled v-Src/Hu c-Src fusion gene in which the catalytic domain of human c-Src was inserted in place of the v-Src catalytic domain in the v-Src gene are used for the measurement of src dependent suspension growth. […] Multiple entries for a given compound indicate that it was tested multiple times.

[2] = target: T1, Rat2 fibroblasts stably transformed with v-Src/Hu Lck fusion gene (Homo sapiens, UniProt P06239, cells depend on it, form not given); assay: Anchorage independent Lck-transformed fibroblast proliferation assay; format: cell-based, rat
T1 construct: Candidates are e.g. Schmidt-Ruppin A (P00524) or Prague C (P00526); The human Lck catalytic domain stands in place of the v-Src catalytic domain
Experimental: Anchorage Independent Lck-Transformed Fibroblast Proliferation Assay
Rat2 fibroblasts stably transformed with a plasmid containing a CMV promotor controlled v-Src/Hu Lck fusion gene in which the catalytic domain of human Lck was inserted in place of the v-Src catalytic domain in the v-Src gene are used for the measurement of src dependent suspension growth. Ultra-low cluster plates (Costar # 3474) are seeded with 10,000 cells per well on Day 1. Compound is added in serial two-fold dilutions from 10 micromolar to 0.009 micromolar on Day 2 and MTS reagent (Promega) is added on Day 5 (100 microliters of MTS/medium mix+100 microliters of medium already on the cells and the absorbance is measured at 490 nm. The results are analyzed as follows to yield an IC50 for proliferation (micromolar units) as follow: % inhibition=(Abs490 nm sample−blank)/(Abs490 nm no cmpd control−blank)×100%. The results obtained for representative compounds of this invention are listed in Table 2. Multiple entries for a given compound indicate that it was tested multiple times.

[3] = target: T2, Recombinant human Src enzyme (Homo sapiens, UniProt P12931); assay: Src kinase assay (LANCE FRET); format: biochemical; settings: Table 3; 100 μM ATP, biotinylated Cdk1 peptide substrate
T2 construct: purchased PanVera P3044
Experimental: Recombinant human Src enzyme was obtained from PanVera (P3044). […] Homogeneous fluorescence resonance energy transfer kinase assays were performed using the europium/APC detection format (LANCE, Perkin Elmer). Src enzyme (10 ng) was mixed with biotinylated peptide (final concentration 2 μM), 50 mM Hepes (pH 7.5), 10 mM MgCl2, 20 μg/ml BSA, 0.001% Brij-35 (sigma), 100 μM ATP, 1% DMSO. The kinase reaction was incubated for 70 min at 37° C. The reaction was stopped with EDTA at a final concentration of 30 mM EDTA/25 mM Hepes (pH 7.5)/10 μg/ml BSA. The mixture was combined with Eu-labeled anti-phosphotyrosine antibody PT66 (Perkin Elmer, AD0068) and Streptavidin Surelight-APC (Perkin Elmer, CR130-100) in 50 mM Hepes (pH 7.5)/20 μg/ml BSA, and incubated for 30 min according to manufacturer's specifications. […] Multiple entries for a given compound indicate that it was tested multiple times.

[4] = Rattus norvegicus, Rat2, Table 3, read-out: Src Cells IC50 μM or % inhib at 10 μM (IC50 values)
[5] = Table 3, read-out: Src Cells IC50 μM or % inhib at 10 μM (IC50 values)
[6] = Table 3, read-out: Lck Cells IC50
[7] = Rattus norvegicus, Rat2, read-out: Src Cells IC50 μM or % inhib at 10 μM (IC50 values), Table 3
[8] = read-out: Src Cells IC50 μM or % inhib at 10 μM (IC50 values), Table 3

T2 sequence (P12931 whole entry): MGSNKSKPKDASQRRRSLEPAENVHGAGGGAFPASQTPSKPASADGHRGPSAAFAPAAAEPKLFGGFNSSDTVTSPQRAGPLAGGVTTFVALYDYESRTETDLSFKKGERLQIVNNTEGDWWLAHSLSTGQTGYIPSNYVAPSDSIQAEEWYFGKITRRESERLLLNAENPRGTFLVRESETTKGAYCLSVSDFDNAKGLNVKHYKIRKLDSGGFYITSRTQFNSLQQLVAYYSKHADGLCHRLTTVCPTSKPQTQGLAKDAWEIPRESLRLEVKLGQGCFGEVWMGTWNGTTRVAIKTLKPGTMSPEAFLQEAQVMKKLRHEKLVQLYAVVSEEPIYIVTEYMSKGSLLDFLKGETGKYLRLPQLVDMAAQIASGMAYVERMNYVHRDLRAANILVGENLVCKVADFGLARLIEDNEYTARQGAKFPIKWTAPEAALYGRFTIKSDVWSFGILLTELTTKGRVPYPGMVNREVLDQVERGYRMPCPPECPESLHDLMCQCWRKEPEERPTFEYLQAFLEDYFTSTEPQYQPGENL
T1 sequence (P06239 whole entry, change not shown, the tested form may be a part): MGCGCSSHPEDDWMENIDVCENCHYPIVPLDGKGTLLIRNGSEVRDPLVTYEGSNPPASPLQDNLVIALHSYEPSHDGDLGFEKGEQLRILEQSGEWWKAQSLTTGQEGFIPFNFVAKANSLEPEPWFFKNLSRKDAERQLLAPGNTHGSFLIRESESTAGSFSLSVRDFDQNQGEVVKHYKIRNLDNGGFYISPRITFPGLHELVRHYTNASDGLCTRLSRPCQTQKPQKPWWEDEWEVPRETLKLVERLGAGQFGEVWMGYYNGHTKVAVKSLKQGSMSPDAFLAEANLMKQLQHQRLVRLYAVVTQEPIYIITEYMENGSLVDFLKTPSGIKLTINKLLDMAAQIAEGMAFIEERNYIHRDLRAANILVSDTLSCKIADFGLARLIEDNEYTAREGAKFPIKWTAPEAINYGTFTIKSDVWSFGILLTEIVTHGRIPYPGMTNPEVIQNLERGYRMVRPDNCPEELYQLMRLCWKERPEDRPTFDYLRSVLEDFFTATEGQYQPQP

GI50 [2, 6] | IC50 [3] | melting point | Structure (SMILES) | IC50 [1, 4] | IC50 [1, 5] | further results
145 nM and 103 nM | 8.8 nM and 11 nM | 162 to 164 °C | COCCNCc1ccc(-c2cc3ncc(C#N)c(Nc4cc(OC)c(Cl)cc4Cl)c3s2)cc1 [Example 92, 7-[(2,4-dichloro-5-methoxyphenyl)amino]-2-(4-{[(2-methoxyethyl)amino]methyl}phenyl)thieno[3,2-b]pyridine-6-carbonitrile] | 0.829 µM | 0.486 µM | –
897 nM and 1080 nM and 1560 nM | 18 nM and 23 nM | 211 to 213 °C | COc1cc(Nc2c(C#N)cnc3cc(-c4ccc(CN5CCN(S(C)(=O)=O)CC5)cc4)sc23)c(Cl)cc1Cl [Example 122, 7-[(2,4-dichloro-5-methoxyphenyl)amino]-2-(4-{[4-(methylsulfonyl)piperazin-1-yl]methyl}phenyl)thieno[3,2-b]pyridine-6-carbonitrile] | – | – | –
201 nM and 240 nM | 13 nM and 12 nM | 227 to 229 °C | COc1cc(Nc2c(C#N)cnc3cc(-c4ccc(CN5CCOCC5)cn4)sc23)c(Cl)cc1Cl [Example 108, 7-[(2,4-dichloro-5-methoxyphenyl)amino]-2-[5-(morpholin-4-ylmethyl)pyridin-2-I]thieno[3,2-b]pyridine-6-carbonitrile] | 0.474 µM | 0.319 µM | –
103 nM and 95 nM and 58 nM and 71 nM | 10 nM and 6.6 nM | 160 to 162 °C | CCN(CC)Cc1ccc(-c2cc3ncc(C#N)c(Nc4cc(OC)c(Cl)cc4Cl)c3s2)cc1 [Example 106, 7-[(2,4-dichloro-5-methoxyphenyl)amino]-2-{4-[(diethylamino)methyl]phenyl}thieno[3,2-b]pyridine-6-carbonitrile] | – | – | –
539 nM and 557 nM | 66 nM and 69 nM | 221 to 223 °C | COc1cc(Nc2c(C#N)cnc3cc(-c4cccc(CN(C)C)n4)sc23)c(Cl)cc1Cl [Example 128, 7-[(2,4-dichloro-5-methoxyphenyl)amino]-2-{6-[(dimethylamino)methyl]pyridin-2-yl}thieno[3,2-b]pyridine-6-carbonitrile] | – | – | –
58 nM and 71 nM | 11 nM and 9.6 nM | 229 to 232 °C | COc1cc(Nc2c(C#N)cnc3cc(-c4ccc(CN5CCN(C)CC5)cn4)sc23)c(Cl)cc1Cl [Example 103, 7-[(2,4-dichloro-5-methoxyphenyl)amino]-2-{5-[(4-methylpiperazin-1-yl)methyl]pyridin-2-yl}thieno[3,2-b]pyridine-6-carbonitrile] | 0.401 µM | 0.445 µM | –
120 nM and 77 nM | 9.4 nM and 15 nM | – | COc1cc(Nc2c(C#N)cnc3cc(-c4ccc(CN(C)CCN(C)C)cc4)sc23)c(Cl)cc1Cl [Example 72, 7-[(2,4-dichloro-5-methoxyphenyl)amino]-2-(4-{[[2-(dimethylamino)ethyl](methyl)amino]methyl}phenyl)thieno[3,2-b]pyridine-6-carbonitrile] | 1.3 µM | 0.7 µM | –
193 nM and 133 nM and 168 nM | 8.4 nM and 8.3 nM and 6.9 nM and 5.3 nM | 218 to 220 °C | COc1cc(Nc2c(C#N)cnc3cc(-c4ccc(CN5CCNCC5)cc4)sc23)c(Cl)cc1Cl [Example 95, 7-[(2,4-dichloro-5-methoxyphenyl)amino]-2-[4-(piperazin-1-ylmethyl)phenyl]thieno[3,2-b]pyridine-6-carbonitrile] | – | – | –
3340 nM and 1930 nM | – | 215 to 217 °C | COc1cc(Nc2c(C#N)cnc3cc(C#Cc4ccc(CN(C)C)cn4)sc23)c(Cl)cc1Cl [Example 100, 7-[(2,4-dichloro-5-methoxyphenyl)amino]-2-({5-[(dimethylamino)methyl]pyridin-2-yl}ethynyl)thieno[3,2-b]pyridine-6-carbonitrile] | > 10 µM | – | –
4500 nM | – | 225 to 227 °C | COc1cc(Nc2c(C#N)cnc3cc(-c4ccc(N5CCOCC5)nc4)sc23)c(Cl)cc1Cl [Example 109, 7-[(2,4-dichloro-5-methoxyphenyl)amino]-2-(6-morpholin-4-ylpyridin-3-yl)thieno[3,2-b]pyridine-6-carbonitrile] | > 10 µM | – | –
> 10000 nM | – | 315 to 316 °C | COc1cc(Nc2c(C#N)cnc3cc(/C=C/n4nccn4)sc23)c(Cl)cc1Cl [Example 66, 7-[(2,4-Dichloro-5-methoxyphenyl)amino]-2-[(E)-2-(2H-1,2,3-triazol-2-yl)vinyl]thieno[3,2-b]pyridine-6-carbonitrile] | – | – | inhibition at 10 µM ([1]; Rattus norvegicus, Rat2, Table 3, at 10 μM, read-out: Src Cells IC50 μM or % inhib at 10 μM (% values)): 26%; Src Cells IC50 μM or % inhib at 10 μM (% values) ([1]; Table 3, at 10 μM): 26%, 26%
– | – | 234 to 235 °C | COc1cc(Nc2c(C#N)cnc3cc(-c4cnc(CN5CCN(C)CC5)n4C)sc23)c(Cl)cc1Cl [Example 59, 7-[(2,4-Dichloro-5-methoxyphenyl)amino]-2-{1-methyl-2-[(4-methylpiperazin-1-yl)methyl]-1H-imidazol-5-yl}thieno[3,2-b]pyridine-6-carbonitrile] | – | – | IC50 ([1]; Rattus norvegicus, Rat2, 120 h, Table 1, suspension growth, MTS readout Day 5, read-out: Src cells IC50): 1.21 µM; IC50 ([1]; Table 1, suspension growth, MTS readout Day 5, read-out: Src cells IC50): 2.29 µM; GI50 ([2]; Table 2, suspension growth, MTS readout Day 5, read-out: Lck cells IC50): 270 nM and 320 nM
283 nM and 428 nM | 16 nM | – | COc1cc(Nc2c(C#N)cnc3cc(-c4ccc(CN5CCS(=O)(=O)CC5)cc4)sc23)c(Cl)cc1Cl [Example 111, 7-[(2,4-dichloro-5-methoxyphenyl)amino]-2-{4-[(1,1-dioxidothiomorpholin-4-yl)methyl]phenyl}thieno[3,2-b]pyridine-6-carbonitrile] | 0.572 µM | 0.411 µM | –
1900 nM and 2200 nM | – | 215 to 217 °C | COc1cc(Nc2c(C#N)cnc3cc(-c4ccc(CN5CCN(C)CC5)o4)sc23)c(Cl)cc1Cl [Example 69, 7-[(2,4-dichloro-5-methoxyphenyl)amino]-2-{5-[(4-methylpiperazin-1-yl)methyl]-2-furyl}thieno[3,2-b]pyridine-6-carbonitrile] | 2.8 µM | 3.4 µM | –
160 nM and 250 nM | – | 210 to 212 °C | COc1cc(Nc2c(C#N)cnc3cc(-c4ccc(CN(C)C)s4)sc23)c(Cl)cc1Cl [Example 88, 7-[(2,4-dichloro-5-methoxyphenyl)amino]-2-{5-[(dimethylamino)methyl]thien-2-yl}thieno[3,2-b]pyridine-6-carbonitrile] | 2.4 µM | 2.3 µM | –

Structure (SMILES) | GI50 [2, 6] | IC50 [3] | melting point | IC50 [1, 4] | IC50 [1, 5] | further results
COc1cc(Nc2c(C#N)cnc3cc(-c4ccc(CCN(C)C)cc4)sc23)c(Cl)cc1Cl [Example 134, 7-[(2,4-dichloro-5-methoxyphenyl)amino]-2-{4-[2-(dimethylamino)ethyl]phenyl}thieno[3,2-b]pyridine-6-carbonitrile] | 130 nM and 170 nM | 7.6 nM and 10 nM | 196 to 197 °C | – | – | IC50 [1, 7]: 0.505 µM; IC50 [1, 8]: 0.337 µM
COc1cc(Nc2c(C#N)cnc3cc(-c4ccc(N(C)C)cc4)sc23)c(Cl)cc1Cl [Example 73, 7-[(2,4-dichloro-5-methoxyphenyl)amino]-2-[4-(dimethylamino)phenyl]thieno[3,2-b]pyridine-6-carbonitrile] | 1200 nM and 1100 nM | 120 nM and 94 nM | 255 to 258 °C | – | – | IC50 [1, 7]: 1.4 µM; IC50 [1, 8]: 1.1 µM
CCN1CCN(Cc2ccc(-c3cc4ncc(C#N)c(Nc5cc(OC)c(Cl)cc5Cl)c4s3)cc2)CC1 [Example 70, 7-[(2,4-dichloro-5-methoxyphenyl)amino]-2-{4-[(4-ethylpiperazin-1-yl)methyl]phenyl}thieno[3,2-b]pyridine-6-carbonitrile] | 120 nM and 110 nM | 7.3 nM and 9.2 nM | 198 to 200 °C | – | – | IC50 [1, 7]: 0.68 µM; IC50 [1, 8]: 0.58 µM
